“And” between values parts separate entries of the source, which are not always exact repeats. Identical values can stand only once. “Also recorded” adds a separate entry of the source.
Experiments:
[1] = tested on: c-Myb; assay: 5×MRE-luciferase reporter assay in HEK293T cells; format: cell-based; conditions: Homo sapiens, HEK-293T; c-Myb plus 5×MRE firefly luciferase transfected, 18 hours, normalized to DMSO
Description: (§1) An assay using a 5×Myb-response element (MRE)-luciferase construct was used to evaluate the compounds' ability to bind MYB and/or disrupt the MYB-NFIB interaction. The 5×MRE reporter was conducted in both HEK293T cells and Jurkat cells, and for the HEK293T system a transient transfection of plasmid vectors expressing either MYB or MYB-NFIB, and a plasmid containing the 5×MRE promoter sequence cloned upstream of Firefly luciferase were used. For the Jurkat system, the reporter was driven by endogenous MYB, and the 5×MRE construct was transiently transfected. Cells were treated with two different high concentrations of each compound (10 and 20 µM) and the luciferase activity was measured 18 hours post-treatment. Individual wells were normalized for viability (cell count) using the Cyto-tox One assay (Promega).
HEK293T cells were plated at a density of 7500 cells/well in a 384-well plate. The following day, the cells were transfected with plasmids encoding 1)c-Myb under control of a CMV promoter, 2) 5×MRE reporter construct driving firefly luciferase expression in a 1:2 ratio. 4 hours following transfection, compound analogs were added using a Tecan transfer tool to the wells. The plate was incubated for 18 hours, and then firefly luciferase signal measured using promega Dual-Glo luciferase assay system according to the manufacturer's protocols. The signal was normalized to control wells which were treated with DMSO vehicle.

[2] = tested on: endogenous MYB; assay: 5×MRE-luciferase reporter assay in Jurkat cells; format: cell-based; conditions: Homo sapiens, 5×MRE firefly luciferase, 18 hours, normalized to DMSO
Description: as §1
Jurkat cells were reverse transfected at a density of 40,000 cells/well at the time of plating with a plasmid encoding 5×MRE reporter construct driving firefly luciferase expression. 4 hours following transfection, the compound analogs were added using a Tecan transfer tool to the wells. The plate was incubated for 18 hours, and then firefly luciferase signal was measured using promega Steady-glo luciferase assay system according to the manufacturer's protocols. The signal was normalized to control wells which were treated with DMSO vehicle.

[3] = tested on: Jurkat; assay: Cell Titer Glo viability assay, Jurkat; format: cell-based; conditions: Homo sapiens, read-out: IC50 Cell Titer Glow Viability Jurkat
[4] = tested on: MM1.S, a multiple myeloma line; assay: Cell Titer Glo assay, MM1.S; format: cell-based; conditions: Homo sapiens, FIG. 3B
Text: FIG. 3B is a plot showing Cell Titer Glo assay results for KI-TM-001 in several hematopoietic lines versus prostate and ovarian cell lines.
(§2) Efforts have also included assessment of impact on viable cell growth using traditional luminescent cell viability assays (e.g., CellTiter-Glo™ or GTG) and high-throughput profiling in barcoded and pooled cancer cell lines. Collaboration with the Broad Institute's PRISM cell profiling platform provided the ability to survey sensitivity to KI-TM-001 against 800 cancer cell lines representing a broad spectrum of lineages, including 300 suspension lines and 500 adherent lines.
(§3) Roughly 650 of the lines passed quality control analyses. […] The CTG assay is well established has been used to survey viability of cell lines used routinely in the lab, noting a separation between solid tumor lines and hematopoetic lineages (FIG. 3B).

[5] = biological target: T1, MYB-TAF12 interaction (Homo sapiens, UniProt P10242); assay: In-cell BRET protein-protein interaction assay; format: cell-based; conditions: FIG. 1B, read-out: IC50 for blocking the MYB-TAF12 interaction
T1 construct: BRET donor or acceptor fusion (which one is not specified); expressed in transfected cells
Description: (§4) In-cell bioluminescence resonance energy transfer (BRET) assays were developed to assess the influence of the compounds on MYB-p300 and MYB-TAF12 interactions (FIG. 1A). […] The ability of KI-TM-001 to modulate MYB protein and transcript levels in MOLT4 and Jurkat cells was also evaluated. […] Degradation appears to be proteasome-dependent as MYB can be rescued by treatment with the proteasome inhibitor MG132.

[6] = tested on: APL line NB4; assay: PRISM cell profiling, NB4; format: cell-based; conditions: PRISM data set
Text: as §2, §3

[7] = tested on: endogenous Myb protein; assay: Molt4-5×MRE-FLuc reporter assay; format: cell-based; conditions: 4 hours, One-Glo, normalized to DMSO; read-out: IC50 Molt4-5xMRE-FLuc Reporter
Description: Molt4 cells were stably transduced with a lentiviral construct encoding a 5×MRE Myb-responsive promoter driving firefly luciferase expression. The reporter output is controlled by the levels/activity of endogenous Myb protein in the Molt4 cell line.
Molt4-5×MRE-FLuc cells were plated at a density of 10000 cells/well in 25 uL of media in a 384-well plate. Compound analogs were added using a Tecan transfer tool to the wells. The plate was incubated for 4 hours, and then firefly luciferase signal measured using promega One-Glo luciferase assay system according to the manufacturer's protocols. The signal was normalized to control wells which were treated with DMSO vehicle.

[8] = tested on: Molt4-5×MRE-FLuc cells; assay: Cell-Titer Glo viability assay, Molt4-5×MRE-FLuc cells; format: cell-based; conditions: 4 hours; read-out: IC50 Cell Titer Glo Molt4-5xMRE-FLuc Viability
Description: Molt4-5×MRE-FLuc cells were plated at a density of 10000 cells/well in 25 uL of media in a 384-well plate. The following day, compound analogs were added using a Tecan transfer tool. The plates were incubated for 4 hours, and then the viability was measured using promega Cell-titer glo assay according to the manufacturer's protocols.

[9] = biological target: T2, MYB (Homo sapiens, UniProt P10242); assay: Initial binding studies, MYB
Description: (§5) Next, analogues of KI-TM1-001 were prepared and evaluated. Compounds of Formula (I) may be prepared using the synthetic schemes and procedures described in detail below.
Target sequence in this assay (P10242 whole entry, species assumed): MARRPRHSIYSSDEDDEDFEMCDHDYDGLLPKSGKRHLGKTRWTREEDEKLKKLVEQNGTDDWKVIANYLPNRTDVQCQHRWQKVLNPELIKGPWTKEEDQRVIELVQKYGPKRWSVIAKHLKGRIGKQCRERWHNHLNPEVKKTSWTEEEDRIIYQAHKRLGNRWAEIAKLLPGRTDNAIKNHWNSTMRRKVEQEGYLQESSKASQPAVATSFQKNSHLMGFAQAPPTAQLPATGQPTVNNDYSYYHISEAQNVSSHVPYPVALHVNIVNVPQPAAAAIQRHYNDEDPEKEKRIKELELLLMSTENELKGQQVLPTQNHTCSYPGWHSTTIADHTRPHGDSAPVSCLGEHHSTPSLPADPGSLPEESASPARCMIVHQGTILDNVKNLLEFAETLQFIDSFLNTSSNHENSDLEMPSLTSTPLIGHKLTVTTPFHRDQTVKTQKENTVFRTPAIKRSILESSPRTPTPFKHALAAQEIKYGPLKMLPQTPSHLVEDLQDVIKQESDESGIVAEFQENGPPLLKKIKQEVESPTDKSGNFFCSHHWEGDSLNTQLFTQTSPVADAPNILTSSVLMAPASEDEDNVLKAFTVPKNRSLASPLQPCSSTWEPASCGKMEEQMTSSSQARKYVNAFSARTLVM

[10] = tested on: MYB-NFIB fusion protein; assay: Initial binding studies, MYB-NFIB
Description: as §5

[11] = tested on: 800 cancer cell lines; assay: PRISM cell profiling in barcoded and pooled cancer cell lines; format: cell-based
Text: as §2, §3

[12] = biological target: T2, MYB; assay: MYB protein levels in MOLT4 and Jurkat cells; format: cell-based; set-up: endogenous in cells; host or cells: MOLT4 and Jurkat cells
Description: FIG. 2 is a plot showing a dose curve of KI-TM-001, and its effect on MYB protein levels in Molt4 at the 6 hour timepoint.
as §4
Target sequence in this assay (P10242 whole entry): as the sequence (P10242 whole entry, species assumed) above

T1 sequence (P10242 whole entry, the tested form may be a part): as the sequence (P10242 whole entry, species assumed) above

Row | SMILES | IC50 [1] | IC50 [2] | IC50 [3] | further results
1 | COc1cccc(CNC2CCN(c3cc(C)nc(N)n3)CC2)c1 [drawing 238] | > 40 µM | 30.1 µM | > 30 µM | –
2 | Cc1cc(N2CCC(NCc3cccc(N(C)C)c3)CC2)nc(N)n1 [drawing 237] | > 40 µM | > 40 µM | > 30 µM | –
3 | CC(=O)N(Cc1cccc(N2CCCC2)c1)C1CCN(c2cc(C)nc(N)n2)CC1 [drawing 231] | – | 11 µM | > 30 µM | –
4 | Cc1cc(N2CCC(NCc3cccc(C(C)(C)C)c3)CC2)nc(N)n1 [drawing 245] | > 30 µM | – | – | –
5 | Cc1cc(N2CCC(NCc3cccc(N4CCCCC4)c3)CC2)nc(N)n1 [drawing 235] | 25.2 µM | 4.18 µM | 11.2 µM | –
6 | Cc1cc(N2CCC(N(Cc3cccc(N4CCCC4)c3)C(=O)NC(C)C)CC2)nc(N)n1 [drawing 230] | – | 26.4 µM | > 30 µM | –
7 | Cc1cc(N2CCC(NCc3cccc(N4CCCC4)c3)CC2)nc(N)n1 [KI-TM1-001, 4-Methyl-6-(4-((3-(pyrrolidin-1-yl)benzyl)amino)piperidin-1-yl)pyrimidin-2-amine] | – | – | – | GI50 [4]: 2.01 µM; IC50 [5]: 7.07 µM and 7.1 µM; IC50 [6]: 0.21 µM; IC50 [7]: 13.6 µM; IC50 [8]: > 40 µM; binding to MYB [9]: binds; binding to MYB-NFIB fusion protein [10]: binds; IC50 ([11]; PRISM data set, read-out: IC50 in a number of hematopoietic lines): < 1 µM; lineages most impacted / lineage enrichment (median AUC versus lineage) ([11]; PRISM, roughly 650 lines passed quality control, FIG. 3A, listed as KI-TM-001): rhabdomysosarcoma, multiple myeloma, lymphoma, and leukemia; also recorded: mild enrichment for leukemia, lymphoma, multiple myeloma and rhabdomyosarcoma (RMS) cell lines; time to impact on MYB protein levels ([12]; MOLT4 and Jurkat cells): ≤ 2 h; mechanism of MYB degradation ([12]; MYB rescued by the proteasome inhibitor MG132): proteasome-dependent; effect on MYB protein levels ([12]; different cell lines (MOLT4, Jurkat), FIG. 1C-E, FIG. 2, listed as KI-TM-001): dose-dependent reduction of MYB protein; also recorded: dose-dependent manner
8 | Cc1cc(N2CCC(NCc3ccccc3N3CCCC3)CC2)nc(N)n1 [drawing 232] | > 40 µM | 3.09 µM | > 30 µM | –
9 | Cc1cc(N2CCC[C@H](NCc3cccc(N4CCCC4)c3)C2)nc(N)n1 [drawing 242] | – | 8.08 µM | 19.7 µM | –
10 | Cc1cc(N2CCC(NC(=O)c3cccc(N4CCCC4)c3)CC2)nc(N)n1 [drawing 234] | > 40 µM | 11.1 µM | > 30 µM | –
11 | Cc1cc(N2CCC(NCc3ccc(N4CCCC4)cc3)CC2)nc(N)n1 [drawing 233] | > 40 µM | 17.3 µM | > 30 µM | –
12 | Cc1cc(N2CCC(NCc3cccc(N4CCCC4)c3)CC2)nc(N)n1 [drawing 228] | 15.9 µM | 3.49 µM | 3.24 µM | –
13 | CCN(CC)c1ccc(CNC2CCN(c3cc(C)nc(N)n3)CC2)cc1 [drawing 246] | > 30 µM | – | – | –
14 | Cc1cc(N2CCC[C@@H](NCc3cccc(N4CCCC4)c3)C2)nc(N)n1 [drawing 241] | – | 2.25 µM | 4.41 µM | –
15 | Cc1cc(N2CCC(NCc3cccc(-n4cccc4)c3)CC2)nc(N)n1 [drawing 236] | 14.8 µM | 12.1 µM | 21.6 µM | –
16 | Cc1cc(N2CCC(NCc3cccc(N4CCCC4)c3)CC2)ncn1 [drawing 244] | > 30 µM | – | – | –
17 | Cc1cc(N2CCC(NCc3cccc(-n4cccn4)c3)CC2)nc(N)n1 | > 40 µM | 30.6 µM | > 30 µM | –
18 | Cc1cc(N2CCC(NCc3ccccc3)CC2)nc(N)n1 | > 40 µM | 25.7 µM | > 30 µM | –
19 | Cc1cc(NCCCNCc2cccc(N3CCCC3)c2)nc(N)n1 [drawing 243] | – | 8.55 µM | > 30 µM | –
20 | Cc1cc(N2CCC(NCc3cccc(-n4ccnc4)c3)CC2)nc(N)n1 [drawing 240] | > 40 µM | 25.7 µM | > 30 µM | –
